Reference: US20240109917A1 (ACTELION PHARMACEUTICALS LTD, priority 2020, published 2024)
pIC50: −log10 of the molar value.

Columns and labels:
[1] = target: His6-TEV-PDGFRβ (557-1016) (Homo sapiens (Human), UniProt P09619); experiment: PDGFRβ HTRF Assay; type: biochemical; settings: read-out: PDGFR HTRF IC50
Experimental: Instrumentation: a. Compound liquid handling: LabCyte Echo; b. Reagent liquid handling: Thermo Scientific Multidrop Combi; c. BMG PHERAStar multilabel plate reader.
Protein Reagent: His6-TEV-PDGFRβ Protein Prep prepared at Accelagen.
(§1) II. Methods and Procedures
Assay buffer stock solution, contains 50 mM Hepes, 10 mM MgCl2, 1 mM EGTA, and 0.01% Brij-35, 0.01% ovalbumin, 2 mM DTT at pH 7.5, in molecular biology grade water. Store at room temperature.
DTT, 2 M in molecular biology grade water, store at −20° C. in aliquots.
Ovalbumin, 10% or 100 mg/mL, prepare fresh on experimental day.
PDGFRβ, 116 μM (PDGFRb_08 Prep 02), produced at Accelagen. Store at −80° C. in aliquots.
TK-biotin peptide, […] in molecular biology grade water, store at −20° C. in aliquots.
ATP, 100 mM in molecular biology grade water, store at −20° C. in aliquots.
HTRF KinEASE-TK kit: Allow the contents of the Cisbio kit to warm up to room temperature before use. This kit contains HTRF detection buffer, TK-Antibody labeled with Eu^3+-cryptate, TK-substrate biotin and Streptavidin-XL665.
TK Substrate-Biotin, reconstitute 500 μg lyopholized with 574 μL molecular biology grade water to prepare a 500 μM stock; After use, aliquot the rest and store at −20° C.
TK Antibody-Cryptate, reconstitute lyophilized with 1 mL of molecular biology grade water (100× solution) then add 99 mL detection buffer to prepare a ready to use TK-antibody-cryptate solution; the concentration of the TK-antibody-cryptate reagent is not known. After use, aliquot the rest and store at −20° C.
Streptavidin-XL665, reconstitute 3 mg lyophilized with 3 mL molecular biology grade water to prepare a 1 mg/mL or 16.67 μM stock; MW=60 kDa; After use, aliquot the rest and store at −20° C.
(§2) Freshly Prepared Solutions:
Assay buffer. Dilute 5× Kinase buffer 5-fold with molecular biology grade water and add DTT to 2 mM and ovalbumin to 0.1 mg/mL (or 0.01%).
2× protein solution. Make a working solution of […] PDGFRβ in assay buffer. Keep on ice until use to maintain enzyme stability.
2× substrate solution. Make a working solution of 1.6 mM ATP and 1 μM TK-substrate biotin peptide in assay buffer.
3× quench/detection solution. Make a working solution of 0.1875 μM SA-XL665 and the TK-antibody cryptate diluted by 12 of total quench/detection volume in assay buffer.
Keep final streptavidin/biotin ratio at 1 to 8.
Example of 3× quench/detection solution preparation: 8 mL total volume.
TK antibody-cryptate in detection buffer—4000 μL
The kinase reaction is stopped by the addition of the detection reagents which contain EDTA (detection step).
Assay in white ProxiPlate 384-well
Step 1. Dispensing inhibitors/DMSO and low control: Using the ECHO 555 acoustic dispenser, spot desired compound serial dilutions in DMSO, NEAT DMSO to represent the uninhibited enzyme control, and 10 μM final [imatinib] to the represent the 100% inhibited enzyme control
Step 2. PDGFRβ E+I pre-incubation: Add 2 μL 2× protein solution to columns 1-24 using the Multidrop Combi. Centrifuge at 1000 rpm for 1 min. Incubate 30 min at RT
Step 2. Enzymatic reaction: Add 2 μL substrate solution to columns 1-24 to initiate the reaction using the Multidrop Combi; cover/seal the assay plate to reduce evaporation. Centrifuge at 1000 rpm for 1 min. Incubate at room temperature for 3 hours.
Step 3. Quench/Detection: Add 2 μl 3× quench/detection solution to columns 1-24 using the Multidrop Combi; cover/seal the plate. Centrifuge 1 min 1000 rpm. Incubate at RT for 60 min. Read the plate in PHERAstar (or similar instrument) on HTRF setting at excitation 337 nm—dual emission—665/620 nm ratio.
(§3) III. Calculations and Formulas
HTRF ratio values calculated by the instrument (Ratio is acceptor counts/donor counts*10,000) is exported from the plate reader and used in data analysis. […] Assay statistics can include Robust Z′ and Signal to Background.
% Inhibition Calculation: Percent inhibition will be calculated for sample wells based on the equation: […]

VEGFR2, unphosphorylated = VEGFR2, unphosphorylated (Homo sapiens (Human), UniProt P35968); experiment: VEGFR ADP GLO Assay; type: biochemical
Chain of VEGFR2, unphosphorylated (P35968 20-1356): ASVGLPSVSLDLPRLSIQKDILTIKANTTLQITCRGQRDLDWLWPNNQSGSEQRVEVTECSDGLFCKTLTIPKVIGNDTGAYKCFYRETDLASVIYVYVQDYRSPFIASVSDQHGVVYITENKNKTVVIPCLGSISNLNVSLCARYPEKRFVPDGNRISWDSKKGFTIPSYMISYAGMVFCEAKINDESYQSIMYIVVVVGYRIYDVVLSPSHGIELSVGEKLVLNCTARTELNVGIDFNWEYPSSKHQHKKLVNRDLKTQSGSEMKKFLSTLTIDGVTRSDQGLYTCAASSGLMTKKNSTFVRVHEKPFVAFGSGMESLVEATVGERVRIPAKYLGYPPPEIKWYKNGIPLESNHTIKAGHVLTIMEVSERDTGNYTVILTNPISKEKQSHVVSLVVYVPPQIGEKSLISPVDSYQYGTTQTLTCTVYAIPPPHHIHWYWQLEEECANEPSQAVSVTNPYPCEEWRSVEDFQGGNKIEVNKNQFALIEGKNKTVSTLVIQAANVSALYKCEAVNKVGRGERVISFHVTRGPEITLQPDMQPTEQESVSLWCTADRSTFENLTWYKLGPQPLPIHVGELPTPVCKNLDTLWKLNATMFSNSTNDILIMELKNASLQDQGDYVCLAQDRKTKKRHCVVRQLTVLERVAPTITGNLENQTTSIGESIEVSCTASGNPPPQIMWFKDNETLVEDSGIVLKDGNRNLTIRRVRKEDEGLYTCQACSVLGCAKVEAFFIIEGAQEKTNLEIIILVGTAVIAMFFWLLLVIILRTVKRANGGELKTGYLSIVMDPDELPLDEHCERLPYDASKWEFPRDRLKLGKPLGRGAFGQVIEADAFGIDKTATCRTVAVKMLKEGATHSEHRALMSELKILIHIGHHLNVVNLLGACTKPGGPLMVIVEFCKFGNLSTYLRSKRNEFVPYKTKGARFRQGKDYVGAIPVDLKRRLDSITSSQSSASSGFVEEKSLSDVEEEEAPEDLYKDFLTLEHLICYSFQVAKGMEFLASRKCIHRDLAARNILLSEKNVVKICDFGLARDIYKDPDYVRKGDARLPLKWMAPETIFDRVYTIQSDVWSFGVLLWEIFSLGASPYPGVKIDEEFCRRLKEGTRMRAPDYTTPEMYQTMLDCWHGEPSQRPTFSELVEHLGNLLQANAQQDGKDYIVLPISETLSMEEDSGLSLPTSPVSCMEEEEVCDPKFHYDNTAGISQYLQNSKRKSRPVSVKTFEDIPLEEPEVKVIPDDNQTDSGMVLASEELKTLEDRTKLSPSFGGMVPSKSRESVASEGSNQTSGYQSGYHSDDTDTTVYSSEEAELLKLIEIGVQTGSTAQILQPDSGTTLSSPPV
Experimental: as §1
Assay buffer stock contains 50 mM HEPES pH7.5, 10 mM MgCl2, 0.01% Brij-35, and 1 mM EGTA.
Unphosphorylated VEGFR2. […] Store at −80° C. in aliquots.
Sonicate 10 mg/ml Srctide solution for 10 minutes and then vacuum filter.
Freshly Prepared Solutions
2× kinase solution. Make a working solution of 10 nM unphosphorylated VEGFR2 in Assay buffer. Vacuum filter 2× kinase solution prior to running assay. Keep on ice until use.
2× substrate/ATP solution. Make a working solution of 2 mg/mL srctide and 2.4 mM ATP in Assay buffer. Keep on ice until use.
Step 1. Dispensing inhibitors/controls: Using Echo, dispense 10 nL/well compound serial dilutions in DMSO to columns 1-22 (in 384-well plates) or columns 1-44 (in 1536-well plates). Dilution series=11 pt, 3-fold dilutions. The top compound concentration in the source plate is 4 mM. The top compound concentration in the assay plate is 10 uM. Using Echo, dispense 10 nl/well DMSO to column 23 (in 384-well plates) or columns 45-47 (in 1536-well plates). […] These wells will serve as positive control wells.
Step 2. Pre-incubation of inhibitors with kinase: Add 2 μL/well 2× kinase solution. Centrifuge at 1000 rpm for 1 min. Incubate at room temperature for 30 min.
Step 3. Kinase cascade reaction: Add 2 μL/well 2× substrate/ATP solution to initiate kinase reactions. Centrifuge at 1000 rpm for 1 min. Incubate at room temperature for 180 min.
Final concentrations of components in the assay:
Step 4. Quench: Add 2 uL/well ADP Glo Reagent+0.05% CHAPS. Centrifuge at 1000 rpm for 1 min; Incubate at room temperature for one hour.
Step 5. Detection: Add 2 uL/well Kinase Detection Reagent+0.05% CHAPS. Centrifuge at 1000 rpm for 1 min; Incubate at room temperature for 1 hour; Read Luminescence on a plate reader.
as §3
IC50 values are determined from a 4-parameter fit, using the following equation: Y=Bottom+(Top−Bottom)/(1+10^(Log IC50-X)*Hill slope) where X=log10 of the compound concentration; top can be defined by PC; bottom defined by NC.

PDGFRβ = PDGFRβ (Rattus norvegicus (Rat), UniProt Q05030); experiment: PDGFRβ Cellular Assay (PDGFRb P-Y751 HTRF in A10 cells stimulated with PDGF-BB); type: cell-based; settings: PDGFR Cellular IC50
Chain of PDGFRβ (Q05030 32-1097): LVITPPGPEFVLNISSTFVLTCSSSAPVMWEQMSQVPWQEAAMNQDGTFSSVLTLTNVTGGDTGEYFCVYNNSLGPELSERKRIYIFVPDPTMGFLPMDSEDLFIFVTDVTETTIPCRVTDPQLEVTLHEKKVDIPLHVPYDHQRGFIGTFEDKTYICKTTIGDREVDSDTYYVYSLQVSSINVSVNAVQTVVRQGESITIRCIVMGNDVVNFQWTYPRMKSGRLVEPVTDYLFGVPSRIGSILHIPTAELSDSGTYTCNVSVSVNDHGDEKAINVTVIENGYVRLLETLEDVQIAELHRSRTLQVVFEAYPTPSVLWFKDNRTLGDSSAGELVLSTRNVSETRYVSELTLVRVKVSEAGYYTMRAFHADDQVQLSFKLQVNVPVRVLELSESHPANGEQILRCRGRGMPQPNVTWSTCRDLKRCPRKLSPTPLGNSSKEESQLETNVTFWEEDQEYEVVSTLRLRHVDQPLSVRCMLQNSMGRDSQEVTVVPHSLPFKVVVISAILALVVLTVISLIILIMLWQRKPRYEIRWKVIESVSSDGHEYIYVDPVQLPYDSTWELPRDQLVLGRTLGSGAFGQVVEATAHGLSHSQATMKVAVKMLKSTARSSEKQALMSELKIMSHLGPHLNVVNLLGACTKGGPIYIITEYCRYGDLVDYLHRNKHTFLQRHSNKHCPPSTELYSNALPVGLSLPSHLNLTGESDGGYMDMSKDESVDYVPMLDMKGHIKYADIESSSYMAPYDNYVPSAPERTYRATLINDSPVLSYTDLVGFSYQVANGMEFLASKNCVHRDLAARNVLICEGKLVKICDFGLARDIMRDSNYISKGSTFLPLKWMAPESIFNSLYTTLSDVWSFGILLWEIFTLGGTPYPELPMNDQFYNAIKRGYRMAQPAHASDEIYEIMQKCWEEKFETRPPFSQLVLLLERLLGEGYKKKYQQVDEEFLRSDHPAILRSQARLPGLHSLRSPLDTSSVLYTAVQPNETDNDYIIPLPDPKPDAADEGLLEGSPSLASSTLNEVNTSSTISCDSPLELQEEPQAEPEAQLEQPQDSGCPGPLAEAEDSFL
Experimental: as §1
Cell Culture and Preparation: Cells are cultured according to ATCC procedure (5) with the addition of the antibiotic penicillin-streptomycin. If working from frozen, cells should be thawed according to ATCC procedure. Depending on the cell density of frozen vial, cells will need time to recover from thaw. An 80% confluent T75 flask should be enough for one 384 well plate.
Stock Solutions: Rat PDGFBB. A 100 ug/mL stock is prepared by reconstituting 50 ug in 500 uL of 4 mM HCl and 0.1% BSA. It can be stored for a month at 4° C., or aliquoted out and frozen in the −20/−80° C. to avoid multiple free-thaw cycles.
as §2
1× Cisbio cell lysis buffer. The cell lysis buffer is diluted 4-fold with molecular grade water. The blocking agent is then diluted 25-fold in the diluted lysis buffer.
Antibody solutions. Equal amounts d2 and cryptate antibody are diluted 20-fold in detection buffer.
Rat PDGFBB. A working stock of 100 ng/mL is created from the stock solution in 10% FBS culture media.
Step 1: Plating Cells: Media from the A10 cell flask is aspirated. The cells are rinsed with PBS and then trypsinized to disperse the cell layer. The cells are then pelleted are resuspended to 1.25e5 cells/mL. […] Plates are covered and placed in the incubator (37° C. 5% CO2) overnight to allow cells to adhere.
Step 2: Compound Dispense: Approximately 18 hours after plating, dispense 40 nL compound onto cells using Echo. Column 12 is the neutral control DMSO, column 24 is the inhibitor control 10 mM Imatinib (10 uM final assay concentration). The plate is returned to the incubator for 3 hours.
After 10 minutes the media is removed by flicking the plate.
Step 4: Cell lysis and antibody addition: 20 uL lysis buffer per well is added to the plate via Tempest. 5 uL antibody solution is added per well via the Tempest. The plate is placed on the shaker at 230 rpm for 1 hour at room temperature.
Step 5: Detection: The plate is read using the HTRF module on the BMG Pherastar. Data is analyzed using Genedata Screener.
as §3
% Inhibition: % Inhibition=(NC−sample)/(NC−PC)*100 where NC is the mean of negative control (reactions without inhibitor), and PC is the mean of positive control (10 μM imatinib).
IC50 values are determined from a 4-parameter fit, using the following equation: Y=Bottom+(Top−Bottom)/(1+10((Log IC50−X)*Hill slope)), where X=log10 of the compound concentration; top can be defined by PC; bottom defined by NC.

Chain of His6-TEV-PDGFRβ (557-1016) (P09619 557-1016): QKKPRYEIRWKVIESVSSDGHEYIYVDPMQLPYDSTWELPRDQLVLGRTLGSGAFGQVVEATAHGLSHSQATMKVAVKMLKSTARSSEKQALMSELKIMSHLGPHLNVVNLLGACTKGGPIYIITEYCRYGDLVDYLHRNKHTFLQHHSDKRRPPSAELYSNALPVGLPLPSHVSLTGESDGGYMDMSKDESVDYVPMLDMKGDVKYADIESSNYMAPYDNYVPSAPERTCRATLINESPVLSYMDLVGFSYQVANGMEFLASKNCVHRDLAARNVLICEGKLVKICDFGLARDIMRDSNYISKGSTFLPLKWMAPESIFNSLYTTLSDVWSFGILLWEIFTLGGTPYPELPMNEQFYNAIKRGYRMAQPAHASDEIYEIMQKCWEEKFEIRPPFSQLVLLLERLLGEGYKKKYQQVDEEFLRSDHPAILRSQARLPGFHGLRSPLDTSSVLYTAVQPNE

Structure (SMILES)	pIC50 [1]	pIC50 (VEGFR2, unphosphorylated)	pIC50 (PDGFRβ)
Cc1ncc(C(=O)NCCN2CC3CCC2CC3)cc1NC(=O)c1cnn2cc(-c3cnn(C)c3)sc12 [Example 1, N-(5-((2-(2-azabicyclo[2.2.2]octan-2-yl)ethyl)carb-amoyl)-2-methylpyridin-3-yl)-2-(1-methyl-1H-pyrazol-4-yl)pyrazolo[5,1-b]thiazole-7-carboxamide]	9.70	< 5.12	7.47
Cc1cc(C(=O)NCCN2CCCC23CCCC3)sc1NC(=O)c1cnn2cc(-c3cnn(C)c3)sc12 [Example 196, N-(5-((2-(1-azaspiro[4.4]nonan-1-yl)ethyl)carbamoyl)-3-methylthiophen-2-yl)-2-(1-methyl-1H-pyrazol-4-yl)pyrazolo[5,1-b]thiazole-7-carboxamide]	8.85	< 5.12	7.07
